Experimental data as given in patent publication US20250152731A1, “ANTI-TROP2 ANTIBODY COMBINATION THERAPIES AND METHODS OF USE THEREOF” (priority 2021, published 2025).

Tests used:
[1] = tested on: TROP2; assay: Immunoblotting of TROP2 protein in breast cancer cell lines; assay type: cell-based, human; settings: breast cancer cell lines
Experimental: (§1) Following treatments, cells were washed with cold PBS and lysed in 1× Laemmli buffer. The protein concentrations in the cell lysates were measured using Pierce BCA protein assay Kit (ThermoFisher). The same amount protein for each sample (20-50 μg/lane) was loaded to SDS-PAGE gel, followed by transferring proteins to a 0.2 μm nitrocellulose membrane (Bio-Rad Laboratories). Membranes were blocked with blocking buffer Blocker Casein in PBS (ThermoFisher) at room temperature for 1 hour, followed by immunoblotting with the primary antibodies in 5% BSA TBST buffer at room temperature overnight. After washing with TBST buffer, the immunoblotting membrane was then probed with the secondary antibodies with fluorescence conjugation. The immunoblots were visualized and the immunoblotting signal intensity quantitated using the Odyssey IR imaging system (Li-Cor Biosciences).
Five cell lines (BCX-011, BCX-010, Sum-159, BCX-010 transfected with control shRNA, and BCX-010 transfected with Zeb1 shRNA) were treated with decitabine (a DNA methyltransferase inhibitor) at 1 μM for 3 days (FIG. 1B). To knockdown Zeb1, BCX-010 cells were transduced with a lentivirus containing Zeb1 shRNA, followed by puromycin selection.
Breast cancer cell lines BCX-010CL, BCX-011CL, and SUM159 cells were treated with decitabine, azacytidine, panobinostat, vorinostat, tazemetostat at […] respectively for 3 days, followed by immunoblotting for E-cad and TROP2 with β-actin as control (FIG. 1D).
The treated cells were lysed. The cell lysate samples were loaded onto SDS-PAGE gel for the western blot. Antibodies ab-214488 and cst-3195 were used to detect TROP2 and E-cadherin respectively. β-actin was used as loading control (FIG. 1C).

[2] = tested on: DNMT1, DNMT3A, and DNMT3B; assay: Immunoblotting of DNA methyltransferases (DNMTs); assay type: cell-based, human; settings: breast cancer cell lines
Experimental: as §1

[3] = tested on: BCX-010 cells; assay: Colony formation assay, BCX-010 control and Zeb1 knockdown; assay type: cell-based, human; settings: BCX-010 control and Zeb1 knockdown cells; decitabine 5 nM, sacituzumab govitecan 20 nM, 14 days
Experimental: FIGS. 7A-7B show a colony assay of BCX-010 cells transfected with control shRNA (FIG. 7A) or Zeb1 shRNA (FIG. 7B) after treatment with vehicle, sacituzumab govitecan (20 nM), and/or decitabine (5 nM) for 14 days. After 14 days, cell colonies formed on the plates, were fixed with 10% formalin, and stained with 0.05% crystal violet. […] Annexin V positive apoptotic cells were measured by flow cytometry. Percentage of apoptotic cells over total cell populations was calculated.
In order to determine the effect of decitabine and/or Zeb1 knockdown treatment on sacituzumab govitecan activity, colony formation assays were performed in BCX-010 breast cancer cells. BCX-010 cells (control and Zeb1 knockdown) were seeded into 6-well plates at 1000 cells/well. Cells were treated with decitabine (5 nM) and/or sacituzumab govitecan ([…]) for 14 days. Culture medium with replaced with culture medium containing fresh drugs twice. After 14 days, cell colonies form on the plates were fixed with 10% formalin and stained with 0.05% crystal violet. Total colony area and colony number were quantified using ImageJ software.

[4] = tested on: BCX-010, BCX-011 and Sum-159 cells; assay: Annexin V flow cytometry apoptosis assay; assay type: cell-based, human; settings: decitabine 1 μM and/or sacituzumab govitecan 0.1 μM, three days; FIGS. 5A-5D
Experimental: In order to determine the effect of decitabine and/or Zeb1 knockdown treatment on sacituzumab govitecan activity, apoptosis was measured in breast cancer cell lines. BCX-010 cells (FIG. 5A and FIG. 5B), BCX-011 cells (FIG. 5C) and Sum-159 cells (FIG. 5D) were seeded in 6-cm plates, then treated with decitabine (1 μM) and/or sacituzumab govitecan (0.1 μM) for three days in an apoptosis assay. After the three day treatment, cells were stained with Annexin V. Flow cytometry was performed to sort Annexin V positive cells (apoptotic cells) (FIGS. 5A-5D). Percentage of apoptotic cells was calculated by Annexin V positive cells over total cell populations.
Cells were seeded in 6 cm plates at a density of 3×10^5 cells per well in triplicates for each treatment group. The following day, cells were treated with decitabine and SG at 1 μM and 0.1 μM respectively, or their combination. […] Using Annexin-V-FLUOS Staining Kit (Roche), cells were stained with Annexin V fluorescence and propidium iodide (PI), following manufacturer's protocol. Samples were analyzed by flow cytometry. Percentage of Annexin V positive apoptotic cells were calculated.
In apoptosis assay, cells were treated with decitabine at 1 μM, SG at 0.1 μM, or their combination for 3 days. Annexin V positive apoptotic cells were measured by flow cytometry. Percentage of apoptotic cells over total cell populations was calculated (FIG. 7D).

[5] = tested on: BCX-010CL and BCX-011CL cells; assay: Cell survival assay of SG in TROP2-overexpressing cells; assay type: cell-based, human; settings: serial dilutions, 3 days, FIG. 8B
Experimental: TROP2-overexpressing cells and control cells were treated with SG at concentrations in serial dilutions for 3 days. SG IC50 was calculated.
For TROP2 overexpression, breast cancer cells seeded in 6-well plates were transfected with TROP2 expression plasmid pCMV6-entry-TROP2 using Lipofectamine 3000 Kit. Two days after transfection, cells were treated with G-418 for 2-3 passages.
After G-418 selection, immunoblotting was performed to detect TROP2 expression (FIG. 8A). Next, TROP2-overexpressing cells and control cells were treated with SG at concentrations in serial dilutions for 3 days. SG IC50 was calculated (FIG. 8B).

[6] = tested on: Sum-159 cells; assay: Colony formation assay, Sum-159; assay type: cell-based, human; settings: sacituzumab govitecan 200 nM, decitabine 200 nM
Experimental: FIGS. 6A-6E show a colony assay of BCX-010 (FIGS. 6A-6B), BCX-011 (FIG. 6C-6D), and Sum-159 cells ([…]) after treatment with vehicle, sacituzumab govitecan (200 nM), and/or decitabine (200 nM) for 10 days. FIGS. 6A-6C show agar plates after 10 days of colony formation.
In order to determine the effect of decitabine treatment on sacituzumab govitecan activity, colony formation assays were performed in BCX-010 cells (FIGS. 6A-6B), BCX-011 cells (FIG. 6C-6D), and Sum-159 breast cancer cells (FIG. 6E-6F).
Cells were seeded in 6-well plates at a density of 1000 cells per well in triplicates for each treatment group. Next day, cells were treated with single drugs, or combination at the different concentrations. Culture medium was changed with fresh drugs twice a week. Cells were cultured for 3 weeks. Cell colonies were then fixed in 10% formalin and stained with 0.05% crystal violet in 25% methanol. The stained colonies were imaged and total colony area was quantitated using NIH ImageJ v.1.48 software. Effect-based Combination Index (CI) was calculated by inhibition percentage of single drug and combination treatments using Bliss combination model. CI=((EA+EB)−(EA*EB))/EAB, where EA, EB, and EAB are effects of drug A, B and combination AB inhibition percentage. Here the effect is inhibition percentage of colony formation compared to vehicle controls. […]

[7] = biological target: T1, TROP2 (Trophoblast cell surface antigen 2) (human, UniProt P09758 27-323); assay: immunofluorescence microscopy, SG-Alexa-488 at 2 ug/ml on BCX cells overexpressing TROP2; signal similar to that on MDA-MB-468 cells with high endogenous TROP2
T1 construct: whole, on cells; also called TACSTD2; tumor-associated calcium signal transducer 2
T1 sequence (looked up): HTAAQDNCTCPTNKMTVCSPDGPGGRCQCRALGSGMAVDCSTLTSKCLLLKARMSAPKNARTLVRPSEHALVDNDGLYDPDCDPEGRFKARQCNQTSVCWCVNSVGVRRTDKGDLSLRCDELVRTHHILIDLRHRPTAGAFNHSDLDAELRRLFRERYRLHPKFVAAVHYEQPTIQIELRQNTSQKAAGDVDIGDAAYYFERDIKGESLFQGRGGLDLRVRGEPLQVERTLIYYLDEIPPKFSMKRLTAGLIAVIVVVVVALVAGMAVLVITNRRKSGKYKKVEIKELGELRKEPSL

[8] = tested on: TROP2 overexpressing cells; assay: Immunofluorescence of ADC binding on cell membrane; assay type: cell-based, human; settings: 2 μg/ml, 2 hours, room temperature; FIG. 12A
Experimental: ADC drug SG was labeled with alexa fluorescent dye using Alexa Fluo 488 Conjugation Lightening Kit (Abcam, #ab236553), following the manufactory protocol. Final SG-Alexa-488 concentration was 1 μg/μl. To bind ADC to cells, cells were seeded on cover slices in 6-well plates overnight, followed by blocking with 3% BSA/PBS at room temperature for 1 hour. Then cells were incubated with SG-Alexa-488 at 2 μg/ml at room temperature for 2 hours, followed by PBS wash twice. For internalization assay, SG-Alexa-488 was added into the culture medium in the wells at 2 μg/ml for 10 min, 3 hours, and 24 hours. Cells were fixed with 4% paraformaldehyde at room temperature for 15 min, PBS wash twice. The cover slices were mounted onto slide with DAPI counterstaining. Fluorescence on cell surface and in cytoplasm was monitored using Olympus BX51 fluorescent microscope and imaged using Nuance imaging system.

[9] = biological target: T1, TROP2 (Trophoblast cell surface antigen …); assay: conclusion drawn from the examples' data (immunofluorescence, cell assays)

`CCc1c(C#N)c(SC(C(N)=O)c2ccccc2)nc(N2CCC(N)CC2)c1C#N` (stereo not shown) [GSK-3685032] was tested, and the “TROP2 expression (DNMT1 specific inhibitor)” value [1] was “did not upregulate TROP2 expression” and the DNMT1 protein levels [2] was “decreased DNMT1 protein levels”.

With sacituzumab govitecan the colony formation [3] was “inhibited cell colony formation”, the “apoptosis (Annexin V positive cells)” value [4] was “induced cell apoptosis in BCX-010 and Sum-159 cells” and the “cell sensitivity to SG (IC50) in TROP2-overexpressing vs control cells” value [5] was “Overexpression of TROP2 sensitizes cells”. For the same molecule, the colony formation [6] was “inhibited cell colony formation in Sum-159 cells”.

B1: sacituzumab govitecan-Alexa-488 (antibody, V domains shown)
VH: QVQLQQSGSELKKPGASVKVSCKASGYTFTNYGMNWVKQAPGQGLKWMGWINTYTGEPTYTDDFKGRFAFSLDTSVSTAYLQISSLKADDTAVYFCARGGFGSSYWYFDVWGQGSLVTVSS
VL: DIQLTQSPSSLSASVGDRVSITCKASQDVSIAVAWYQQKPGKAPKLLIYSASYRYTGVPDRFSGSGSGTDFTLTISSLQPEDFAVYYCQQHYITPLTFGAGTKVEIK
modifications: conjugated to SN-38 (antibody drug conjugate) and labelled with Alexa Fluor 488; sites not stated
B1: binds [7].

B2: SG ADC labeled with Alexa-Fluo-488 (conjugate)
VH: QVQLQQSGSELKKPGASVKVSCKASGYTFTNYGMNWVKQAPGQGLKWMGWINTYTGEPTYTDDFKGRFAFSLDTSVSTAYLQISSLKADDTAVYFCARGGFGSSYWYFDVWGQGSLVTVSS
VL: DIQLTQSPSSLSASVGDRVSITCKASQDVSIAVAWYQQKPGKAPKLLIYSASYRYTGVPDRFSGSGSGTDFTLTISSLQPEDFAVYYCQQHYITPLTFGAGTKVEIK
With B2 the “immunofluorescent signal on cell membrane, TROP2-overexpressing cells” value [8] was “strong immunofluorescent signal on cell membrane” and the “immunofluorescent signal on cell membrane, control cells” value [8] was “negative signal”.

B3: sacituzumab govitecan (antibody, V domains shown)
VH: QVQLQQSGSELKKPGASVKVSCKASGYTFTNYGMNWVKQAPGQGLKWMGWINTYTGEPTYTDDFKGRFAFSLDTSVSTAYLQISSLKADDTAVYFCARGGFGSSYWYFDVWGQGSLVTVSS
VL: DIQLTQSPSSLSASVGDRVSITCKASQDVSIAVAWYQQKPGKAPKLLIYSASYRYTGVPDRFSGSGSGTDFTLTISSLQPEDFAVYYCQQHYITPLTFGAGTKVEIK
modifications: conjugated to SN-38 (antibody drug conjugate); sites not stated
notes: also called SG; Trodelvy
B3: binds [9].
